Values joined by “and” are separate entries in the source; they are usually repeats but may differ in a detail not shown here. Equal entries are not always repeated.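 Values below derive from 48-hour exposures of cells grown in 96-well plates, with endpoints linearly interpolated between the two concentrations bracketing the appropriate inhibition level. GI50 is the concentration that inhibits growth by half. TGI denotes the concentration required for complete inhibition of growth.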
Legend:
Assay in all cases: NCI anticancer screen, dose series, 48 h
SK-OV-3 ovarian = test system: SK-OV-3 ovarian
SR leukemia = test system: SR leukemia
DLD-1 colon = test system: DLD-1 colon
NCI-H522 lung = test system: NCI-H522 lung
SF-539 CNS = test system: SF-539 CNS
RPMI-8226 leukemia = test system: RPMI-8226 leukemia
NCI-H226 lung = test system: NCI-H226 lung
HOP-62 NSCLC = test system: HOP-62 NSCLC
UO-31 renal = test system: UO-31 renal
CCRF-CEM leukemia = test system: CCRF-CEM leukemia
HOP-92 NSCLC = test system: HOP-92 NSCLC
TK-10 renal = test system: TK-10 renal
NCI-H460 lung = test system: NCI-H460 lung
SN12C renal = test system: SN12C renal
HCT-15 colon = test system: HCT-15 colon
HT29 colon = test system: HT29 colon
M14 melanoma = test system: M14 melanoma
OVCAR-5 ovarian = test system: OVCAR-5 ovarian
HCT-116 colon = test system: HCT-116 colon
SNB-78 CNS = test system: SNB-78 CNS
UACC-257 melanoma = test system: UACC-257 melanoma
A498 renal = test system: A498 renal
SK-MEL-2 melanoma = test system: SK-MEL-2 melanoma
LXFL 529 NSCLC = test system: LXFL 529 NSCLC
786-0 renal = test system: 786-0 renal
ACHN renal = test system: ACHN renal
LOX IMVI melanoma = test system: LOX IMVI melanoma
A549 NSCLC = test system: A549 NSCLC
SF-268 CNS = test system: SF-268 CNS
OVCAR-3 ovarian = test system: OVCAR-3 ovarian
M19-MEL melanoma = test system: M19-MEL melanoma
MOLT-4 leukemia = test system: MOLT-4 leukemia
HL-60(TB) leukemia = test system: HL-60(TB) leukemia
OVCAR-8 ovarian = test system: OVCAR-8 ovarian
SW-620 colon = test system: SW-620 colon
SNB-75 CNS = test system: SNB-75 CNS
RXF-631 renal = test system: RXF-631 renal
HOP-18 NSCLC = test system: HOP-18 NSCLC
KM12 colon = test system: KM12 colon
MALME-3M melanoma = test system: MALME-3M melanoma
OVCAR-4 ovarian = test system: OVCAR-4 ovarian
NCI-H23 lung = test system: NCI-H23 lung
K-562 leukemia = test system: K-562 leukemia
DMS 114 small cell lung = test system: DMS 114 small cell lung
SF-295 CNS = test system: SF-295 CNS
COLO 205 colon = test system: COLO 205 colon
CAKI-1 renal = test system: CAKI-1 renal
SNB-19 CNS = test system: SNB-19 CNS
UACC-62 melanoma = test system: UACC-62 melanoma
SK-MEL-28 melanoma = test system: SK-MEL-28 melanoma
IGROV1 ovarian = test system: IGROV1 ovarian
SK-MEL-5 melanoma = test system: SK-MEL-5 melanoma
KM20L2 colon = test system: KM20L2 colon
U251 CNS = test system: U251 CNS
HCC-2998 colon = test system: HCC-2998 colon
EKVX NSCLC = test system: EKVX NSCLC
DU-145 prostate = test system: DU-145 prostate
MCF7 breast = test system: MCF7 breast
HS 578T breast = test system: HS 578T breast
RXF 393 renal = test system: RXF 393 renal
PC-3 prostate = test system: PC-3 prostate
MDA-MB-435 = test system: MDA-MB-435
T-47D breast = test system: T-47D breast
MDA-N = test system: MDA-N
MDA-MB-231 breast = test system: MDA-MB-231 breast
BT-549 breast = test system: BT-549 breast
DMS 273 small cell lung = test system: DMS 273 small cell lung
XF 498 CNS = test system: XF 498 CNS

COc1nc(NC2OCC(OC(C)=O)C(OC(C)=O)C2OC(C)=O)c(-c2csc(N)n2)c(=O)n1C (stereo not given)
TGI (SK-OV-3 ovarian): > 100 µM
TGI (SR leukemia): > 100 µM
TGI (DLD-1 colon): > 100 µM
TGI (NCI-H522 lung): > 100 µM
TGI (SF-539 CNS): > 100 µM
TGI (RPMI-8226 leukemia): > 100 µM
TGI (NCI-H226 lung): > 100 µM
TGI (HOP-62 NSCLC): > 100 µM
TGI (UO-31 renal): > 100 µM
TGI (CCRF-CEM leukemia): > 100 µM
TGI (HOP-92 NSCLC): > 100 µM
TGI (TK-10 renal): > 100 µM
TGI (NCI-H460 lung): > 100 µM
TGI (SN12C renal): > 100 µM
TGI (HCT-15 colon): > 100 µM
TGI (HT29 colon): > 100 µM
TGI (M14 melanoma): > 100 µM
TGI (OVCAR-5 ovarian): > 100 µM
TGI (HCT-116 colon): > 100 µM
TGI (SNB-78 CNS): > 100 µM
TGI (UACC-257 melanoma): > 100 µM
TGI (A498 renal): > 100 µM
TGI (SK-MEL-2 melanoma): > 100 µM
TGI (LXFL 529 NSCLC): > 100 µM
TGI (786-0 renal): > 100 µM
TGI (ACHN renal): > 100 µM
TGI (LOX IMVI melanoma): > 100 µM
TGI (A549 NSCLC): > 100 µM
TGI (SF-268 CNS): > 100 µM
TGI (OVCAR-3 ovarian): > 100 µM
TGI (M19-MEL melanoma): > 100 µM
TGI (MOLT-4 leukemia): > 100 µM
TGI (HL-60(TB) leukemia): > 100 µM
TGI (OVCAR-8 ovarian): > 100 µM
TGI (SW-620 colon): > 100 µM
TGI (SNB-75 CNS): > 100 µM
TGI (RXF-631 renal): > 100 µM
TGI (HOP-18 NSCLC): > 100 µM
TGI (KM12 colon): > 100 µM
TGI (MALME-3M melanoma): > 100 µM
TGI (OVCAR-4 ovarian): > 100 µM
TGI (NCI-H23 lung): > 100 µM
TGI (K-562 leukemia): > 100 µM
TGI (DMS 114 small cell lung): > 100 µM
TGI (SF-295 CNS): > 100 µM
TGI (COLO 205 colon): > 100 µM
TGI (CAKI-1 renal): > 100 µM
TGI (SNB-19 CNS): > 100 µM
TGI (UACC-62 melanoma): > 100 µM
TGI (SK-MEL-28 melanoma): > 100 µM
TGI (IGROV1 ovarian): > 100 µM
TGI (SK-MEL-5 melanoma): > 100 µM
TGI (KM20L2 colon): > 100 µM
TGI (U251 CNS): > 100 µM

Cc1nc2c(o1)C(=O)c1ccccc1C2=Nc1ccccc1
TGI (HCC-2998 colon): 28.5 µM
TGI (SK-OV-3 ovarian): 31.2 µM
GI50 (EKVX NSCLC): 7.57 µM
TGI (EKVX NSCLC): > 31.6 µM
TGI (SR leukemia): > 93.5 µM
TGI (DU-145 prostate): 3.33 µM
TGI (DLD-1 colon): 29.2 µM
TGI (MCF7 breast): 5.47 µM
GI50 (NCI-H522 lung): 3.21 µM
TGI (NCI-H522 lung): 7.81 µM and 4.27 µM
GI50 (SF-539 CNS): 1.96 µM
TGI (SF-539 CNS): 3.66 µM and 5.95 µM
GI50 (RPMI-8226 leukemia): 4.43 µM
TGI (RPMI-8226 leukemia): 11.1 µM
TGI (NCI-H226 lung): 31.9 µM
TGI (HOP-62 NSCLC): 6.05 µM
GI50 (UO-31 renal): 3.66 µM
TGI (UO-31 renal): 7.62 µM
GI50 (CCRF-CEM leukemia): 4.61 µM
TGI (CCRF-CEM leukemia): > 65.8 µM
TGI (HOP-92 NSCLC): 6.07 µM
TGI (TK-10 renal): 41.9 µM
TGI (NCI-H460 lung): 12.3 µM
GI50 (SN12C renal): 2.99 µM
TGI (SN12C renal): 7.38 µM and 6.18 µM
TGI (HS 578T breast): 5.38 µM
TGI (RXF 393 renal): 3.3 µM
GI50 (HCT-15 colon): 3.17 µM
TGI (HCT-15 colon): 7.63 µM
TGI (HT29 colon): 33.3 µM
GI50 (M14 melanoma): 1.64 µM
TGI (M14 melanoma): 3 µM and 2.11 µM
TGI (OVCAR-5 ovarian): 11.8 µM
GI50 (HCT-116 colon): 3.35 µM
TGI (HCT-116 colon): 5.77 µM
TGI (SNB-78 CNS): 9.13 µM
TGI (UACC-257 melanoma): 5.46 µM and 4.39 µM
GI50 (SK-MEL-2 melanoma): 3.62 µM
TGI (SK-MEL-2 melanoma): 2.95 µM
TGI (PC-3 prostate): 6.51 µM
TGI (MDA-MB-435): 1.09 µM
TGI (T-47D breast): 7.65 µM
TGI (LXFL 529 NSCLC): 12.3 µM
TGI (786-0 renal): > 55.8 µM
TGI (MDA-N): 0.959 µM
TGI (MDA-MB-231 breast): 18.5 µM
GI50 (ACHN renal): 4.72 µM
TGI (ACHN renal): > 37.7 µM
TGI (LOX IMVI melanoma): 5.2 µM
TGI (BT-549 breast): 3.13 µM
GI50 (A549 NSCLC): 13.2 µM
TGI (A549 NSCLC): 32.3 µM
GI50 (SF-268 CNS): 3.11 µM
TGI (SF-268 CNS): > 31.6 µM
GI50 (OVCAR-3 ovarian): 2.5 µM
TGI (OVCAR-3 ovarian): 4.52 µM and 8.04 µM
GI50 (M19-MEL melanoma): 1.55 µM
TGI (M19-MEL melanoma): 3.24 µM and 2.97 µM
GI50 (MOLT-4 leukemia): 4.55 µM and 4.44 µM
TGI (MOLT-4 leukemia): 34.5 µM
GI50 (HL-60(TB) leukemia): 3.04 µM
TGI (HL-60(TB) leukemia): 11.6 µM
GI50 (OVCAR-8 ovarian): 4.16 µM
TGI (OVCAR-8 ovarian): 9.66 µM
GI50 (SW-620 colon): 3.6 µM
TGI (SW-620 colon): 7.86 µM
TGI (SNB-75 CNS): 3.94 µM and 3.81 µM
GI50 (HOP-18 NSCLC): 4.27 µM
TGI (HOP-18 NSCLC): 3.39 µM and 10.1 µM
TGI (KM12 colon): 14.4 µM
GI50 (MALME-3M melanoma): 1.69 µM
TGI (MALME-3M melanoma): 3.06 µM and 2.66 µM
GI50 (OVCAR-4 ovarian): 2.15 µM
TGI (OVCAR-4 ovarian): 6.5 µM and 5.86 µM
GI50 (NCI-H23 lung): 2.31 µM
TGI (NCI-H23 lung): 6.17 µM and 6.48 µM
GI50 (K-562 leukemia): 4.28 µM
TGI (K-562 leukemia): > 37.4 µM
GI50 (DMS 114 small cell lung): 1.78 µM
TGI (DMS 114 small cell lung): 2.89 µM and 3.69 µM
GI50 (SF-295 CNS): 1.95 µM
TGI (SF-295 CNS): 3.88 µM
TGI (COLO 205 colon): 27.1 µM
TGI (CAKI-1 renal): 32 µM
GI50 (SNB-19 CNS): 11 µM
TGI (SNB-19 CNS): 23 µM
GI50 (UACC-62 melanoma): 2.07 µM
TGI (UACC-62 melanoma): 3.84 µM and 6.7 µM
TGI (SK-MEL-28 melanoma): 3.91 µM
TGI (IGROV1 ovarian): 20.6 µM
GI50 (SK-MEL-5 melanoma): 1.73 µM
TGI (SK-MEL-5 melanoma): 3.1 µM and 2.72 µM
TGI (DMS 273 small cell lung): 6.1 µM
TGI (KM20L2 colon): 42 µM
TGI (XF 498 CNS): 7.69 µM and 6.99 µM
TGI (U251 CNS): 3.12 µM and 3.7 µM
